Values quoted from earlier work as cited in US20170035825A1, “FOOD SUPPLEMENT COMPOSITION COMPRISING A CUCUMBER (CUCUMIS SATIVUS) EXTRACT” (NATURALEA SA, priority 2014, published 2017).

Tested on: uterus explants

O=C(O)[C@@H]1NC[C@H](O)[C@@H](O)[C@@H]1O [ido-BR1, (2R,3R,4R,5S)-3,4,5-trihydroxypiperidine-2-carboxylic acid]
effect on inflammation at 72 h (72 h): not significant
inflammation in the uterus explants (dose-dependent): abrogated inflammation in the uterus explants
